Where two headings read alike, the source gives them in different places.
What was measured:
[1] = target: T1, human N-type Ca channel (Homo sapiens, UniProt Q00975); assay: Electrophysiological response, QPatch (depolarization -80 mV to +20 mV)
Experimental: The recombinant cell line described above was used in the measurement of electrophysiological properties with QPatch (Sophion). Cells were maintained in culture as mentioned above. Prior to the experiment, the flasks were moved to 30 °C and incubated for 48-72 hrs. On the day of assaying, cells were detached and harvested. The cell pellet was re-suspended in SMF4HEK (HyClone)/25mM HEPS at 2-5 million/ mL and placed on the QStirrer of the QPatch for 30-60 min prior to the start of the assay. […] Microtiter-Plate/Reference Buffer contained 140 mM TEA-Cl, 10mM BaCl2, 0.8 mM MgCl2, 10 mM HEPES pH ∼7.4 adjusted with TEA-OH/HCl, and ∼300mOsm. Cells were transferred to a QPatch 48 plate and gigaseal was formed. The plate was perfused with intracellular and extracellular buffer. […] In brief, cells were depolarized from resting potential of -80 mV to +20 mV and current was recorded. Data was plotted as percent inhibition vs concentration of the compound and IC50 values were generated using Graphpad Prism non-linear regression analysis.

[2] = target: T1, human N-type Ca channel; assay: Calcium influx assay (FDSS), KCl depolarization, Fluo8 dye; type: cell-based; parameters: host or cells: HEK 293
In short: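 HEK293 cells stably expressing the human N-type Ca channel were loaded with Fluo8 and washed in choline-based buffer (pH 7.2, 2 mM CaCl2, 2 mM KCl). Cells were preincubated with serially diluted compound for 15 min in the dark. Ca influx was then recorded by fluorescence after depolarization with 100 mM KCl.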

[3] = N Type IC50 Data Qpatch Pulse=15, Pulse=15, concentration range 0.3-10 µM
[4] = read-out: Qpatch Pulse=1 (percent inhibition)
[5] = HEK 293 cells expressing human N-type Ca channel, 100 mM KCl, read-out: N Type IC50 Data FDSS
[6] = read-out: Qpatch Pulse=15 (percent inhibition)
[7] = N Type IC50 Data Qpatch Pulse=1, Pulse=1, concentration range 0.3-10 µM
[8] = Pulse=1, concentration range 0.01-0.3 µM
[9] = Pulse=15, concentration range 0.01-0.3 µM
[10] = read-out: N Type IC50 Data Qpatch Pulse=15, Pulse=15, concentration range 0.01-1 µM
[11] = N Type IC50 Data Qpatch Pulse=1, Pulse=1, concentration range 0.01-0.3 µM
[12] = N Type IC50 Data Qpatch Pulse=1, Pulse=1, concentration range 0.01-1 µM
[13] = read-out: N Type IC50 Data Qpatch Pulse=1, Pulse=1, concentration range 0.01-1 µM

T1 sequence (Q00975 whole entry): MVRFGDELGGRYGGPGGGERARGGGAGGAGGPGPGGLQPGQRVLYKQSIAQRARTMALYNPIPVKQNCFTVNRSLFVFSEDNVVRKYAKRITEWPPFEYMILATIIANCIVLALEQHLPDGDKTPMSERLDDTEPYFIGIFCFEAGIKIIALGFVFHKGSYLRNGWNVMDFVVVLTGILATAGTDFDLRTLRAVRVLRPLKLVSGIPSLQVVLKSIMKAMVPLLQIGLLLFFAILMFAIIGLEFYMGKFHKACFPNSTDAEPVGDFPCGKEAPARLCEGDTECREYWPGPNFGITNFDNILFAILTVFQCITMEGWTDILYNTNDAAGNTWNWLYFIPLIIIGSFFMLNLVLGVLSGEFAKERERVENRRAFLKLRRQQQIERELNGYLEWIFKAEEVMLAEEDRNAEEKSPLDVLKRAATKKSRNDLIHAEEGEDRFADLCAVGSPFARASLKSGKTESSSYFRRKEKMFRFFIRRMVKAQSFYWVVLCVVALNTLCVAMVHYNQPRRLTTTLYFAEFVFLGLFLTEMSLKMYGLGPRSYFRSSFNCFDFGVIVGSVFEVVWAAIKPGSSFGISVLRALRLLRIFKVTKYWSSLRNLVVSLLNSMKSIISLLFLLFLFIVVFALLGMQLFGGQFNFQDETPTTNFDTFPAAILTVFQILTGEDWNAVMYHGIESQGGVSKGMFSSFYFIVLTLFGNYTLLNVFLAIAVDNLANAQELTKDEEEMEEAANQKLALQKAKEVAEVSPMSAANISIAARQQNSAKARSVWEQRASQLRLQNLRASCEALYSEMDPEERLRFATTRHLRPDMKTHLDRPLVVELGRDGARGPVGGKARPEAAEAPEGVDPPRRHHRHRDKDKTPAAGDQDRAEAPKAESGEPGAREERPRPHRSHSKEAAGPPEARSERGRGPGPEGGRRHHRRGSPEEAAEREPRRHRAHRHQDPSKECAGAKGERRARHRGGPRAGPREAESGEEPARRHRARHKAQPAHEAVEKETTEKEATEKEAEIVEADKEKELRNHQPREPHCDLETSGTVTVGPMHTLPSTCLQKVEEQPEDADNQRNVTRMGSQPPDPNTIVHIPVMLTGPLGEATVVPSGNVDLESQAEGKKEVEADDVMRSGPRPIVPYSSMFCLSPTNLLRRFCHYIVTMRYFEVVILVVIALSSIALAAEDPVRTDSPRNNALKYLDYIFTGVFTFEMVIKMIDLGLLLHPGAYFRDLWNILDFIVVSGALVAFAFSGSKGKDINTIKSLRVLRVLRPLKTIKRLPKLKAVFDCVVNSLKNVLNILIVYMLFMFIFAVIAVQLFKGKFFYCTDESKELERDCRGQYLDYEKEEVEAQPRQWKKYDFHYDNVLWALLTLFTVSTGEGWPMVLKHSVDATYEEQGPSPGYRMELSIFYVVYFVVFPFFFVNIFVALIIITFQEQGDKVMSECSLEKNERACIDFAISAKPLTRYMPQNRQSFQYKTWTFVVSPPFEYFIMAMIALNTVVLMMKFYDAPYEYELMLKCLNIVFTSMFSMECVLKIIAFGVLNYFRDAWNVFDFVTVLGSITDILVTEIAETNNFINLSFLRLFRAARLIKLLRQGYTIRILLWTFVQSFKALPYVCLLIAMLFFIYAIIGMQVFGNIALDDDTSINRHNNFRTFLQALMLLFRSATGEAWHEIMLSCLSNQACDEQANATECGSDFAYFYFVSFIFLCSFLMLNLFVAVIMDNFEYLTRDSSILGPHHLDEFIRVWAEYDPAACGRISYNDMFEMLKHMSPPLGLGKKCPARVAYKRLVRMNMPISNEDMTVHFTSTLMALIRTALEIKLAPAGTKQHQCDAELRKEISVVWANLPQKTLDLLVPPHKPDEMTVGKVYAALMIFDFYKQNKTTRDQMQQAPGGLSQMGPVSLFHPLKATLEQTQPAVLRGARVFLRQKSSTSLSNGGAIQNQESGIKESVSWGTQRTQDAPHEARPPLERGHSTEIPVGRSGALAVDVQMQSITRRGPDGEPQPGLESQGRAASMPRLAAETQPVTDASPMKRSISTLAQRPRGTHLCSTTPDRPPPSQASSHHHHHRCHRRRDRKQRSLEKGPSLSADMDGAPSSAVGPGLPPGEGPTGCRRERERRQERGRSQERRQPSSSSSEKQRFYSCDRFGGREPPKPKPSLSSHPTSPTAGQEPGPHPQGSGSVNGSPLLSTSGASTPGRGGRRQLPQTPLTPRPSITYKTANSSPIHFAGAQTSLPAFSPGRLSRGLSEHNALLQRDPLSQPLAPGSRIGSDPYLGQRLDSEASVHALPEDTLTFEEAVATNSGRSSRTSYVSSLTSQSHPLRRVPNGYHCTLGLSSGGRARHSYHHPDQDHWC
T1 sequence (P54284 whole entry partner): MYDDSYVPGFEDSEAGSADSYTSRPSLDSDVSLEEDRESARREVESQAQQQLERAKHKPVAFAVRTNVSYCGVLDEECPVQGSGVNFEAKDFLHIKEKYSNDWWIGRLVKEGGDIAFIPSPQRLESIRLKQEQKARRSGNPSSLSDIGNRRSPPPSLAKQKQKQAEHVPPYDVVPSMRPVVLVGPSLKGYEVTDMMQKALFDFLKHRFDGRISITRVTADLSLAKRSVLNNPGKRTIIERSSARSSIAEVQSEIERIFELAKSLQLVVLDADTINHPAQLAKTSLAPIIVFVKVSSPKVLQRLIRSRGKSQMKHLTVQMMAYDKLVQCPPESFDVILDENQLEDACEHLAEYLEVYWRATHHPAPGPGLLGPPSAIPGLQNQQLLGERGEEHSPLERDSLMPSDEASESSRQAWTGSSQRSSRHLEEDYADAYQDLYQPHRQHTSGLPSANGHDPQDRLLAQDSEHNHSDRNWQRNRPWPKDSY
T1 sequence (P54289 25-956 partner limits assumed): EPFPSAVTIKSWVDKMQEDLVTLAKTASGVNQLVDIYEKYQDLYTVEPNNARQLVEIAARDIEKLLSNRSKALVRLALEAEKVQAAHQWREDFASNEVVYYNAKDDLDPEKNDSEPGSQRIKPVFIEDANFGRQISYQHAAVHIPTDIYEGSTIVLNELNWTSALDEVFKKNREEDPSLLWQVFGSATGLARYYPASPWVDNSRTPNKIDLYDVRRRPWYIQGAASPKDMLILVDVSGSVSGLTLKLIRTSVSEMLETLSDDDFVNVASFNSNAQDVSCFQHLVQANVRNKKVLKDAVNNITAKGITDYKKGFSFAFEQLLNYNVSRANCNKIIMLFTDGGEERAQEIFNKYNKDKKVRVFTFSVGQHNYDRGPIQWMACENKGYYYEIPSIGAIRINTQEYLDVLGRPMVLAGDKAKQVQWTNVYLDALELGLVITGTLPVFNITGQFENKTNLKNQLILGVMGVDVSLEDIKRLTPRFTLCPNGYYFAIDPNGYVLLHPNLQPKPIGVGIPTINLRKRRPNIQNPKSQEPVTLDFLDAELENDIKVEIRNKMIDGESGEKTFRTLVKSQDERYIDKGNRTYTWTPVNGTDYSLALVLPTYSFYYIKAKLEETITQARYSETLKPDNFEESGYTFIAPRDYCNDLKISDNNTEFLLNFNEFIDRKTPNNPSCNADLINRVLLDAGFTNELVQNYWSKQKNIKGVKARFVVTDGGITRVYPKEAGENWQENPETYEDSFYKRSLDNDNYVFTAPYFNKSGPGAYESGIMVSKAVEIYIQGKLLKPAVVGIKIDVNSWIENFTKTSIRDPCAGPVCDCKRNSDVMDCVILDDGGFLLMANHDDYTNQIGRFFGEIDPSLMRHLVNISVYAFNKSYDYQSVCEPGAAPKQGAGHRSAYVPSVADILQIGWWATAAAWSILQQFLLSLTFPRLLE
T1 sequence (P54289 957-1103 partner limits assumed): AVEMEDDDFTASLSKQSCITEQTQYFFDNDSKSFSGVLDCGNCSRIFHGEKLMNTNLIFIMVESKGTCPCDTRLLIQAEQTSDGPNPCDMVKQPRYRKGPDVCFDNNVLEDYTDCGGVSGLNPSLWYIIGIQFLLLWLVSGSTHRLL

IC50 [1, 3] [nM] | IC50 [2, 5] [nM] | IC50 [1, 10] [nM] | SMILES | further results
3600 | 1330 | – | COc1ncccc1-c1nc(C2CC(C)(C)OC(C)(C)C2)cn1-c1ccc(F)c(C#N)c1 [Compound 79, 2-fluoro-5-(2-(2-methoxypyridin-3-yl)-4-(2,2,6,6-tetramethyltetrahydro-2H-pyran-4-yl)-1H-imidazol-1-yl)benzonitrile] | inhibition at 10 µM [1, 4]: 29%
– | 333 | – | COc1ncccc1-c1nc(C2CC(C)(C)OC(C)(C)C2)cn1-c1ccc(C#N)c(F)c1 [Compound 80, 2-fluoro-4-(2-(2-methoxypyridin-3-yl)-4-(2,2,6,6-tetramethyltetrahydro-2H-pyran-4-yl)-1H-imidazol-1-yl)benzonitrile] | inhibition at 10 µM [1, 6]: 28%
2800 | 201 | – | COc1ccccc1-c1nc(C2CC(C)(C)OC(C)(C)C2)cn1-c1ccc(C#N)c(F)c1 [Compound 81, 2-fluoro-4-(2-(2-methoxyphenyl)-4-(2,2,6,6-tetramethyltetrahydro-2H-pyran-4-yl)-1H-imidazol-1-yl) benzonitrile] | IC50 [1, 7]: 6700 nM
– | 3260 | – | COc1ncccc1-c1nc(C2CC(C)(C)OC(C)(C)C2)cn1-c1cc(F)c(C#N)c(F)c1 [Compound 82, 2,6-difluoro-4-(2-(2-methoxypyridin-3-yl)-4-(2,2,6,6-tetramethyltetrahydro-2H-pyran-4-yl)-1H-imidazol-1-yl) benzonitrile] | N Type IC50 Data Qpatch Pulse=1 [1, 8]: poor fit(0.01-0.3 µM); N Type IC50 Data Qpatch Pulse=15 [1, 9]: poor fit(0.01-0.3 µM)
– | – | – | COc1ccccc1-c1nc(C2CC(C)(C)OC(C)(C)C2)cn1-c1c(F)cc(C#N)cc1F [Compound 83, 3,5-difluoro-4-(2-(2-methoxyphenyl)-4-(2,2,6,6-tetramethyltetrahydro-2H-pyran-4-yl)-1H-imidazol-1-yl)benzonitrile] | N Type IC50 Data Qpatch Pulse=1 [1, 8]: poor fit(0.01-0.3 µM); N Type IC50 Data Qpatch Pulse=15 [1, 9]: poor fit(0.01-0.3 µM); IC50 [2]: 49 nM
– | 362 | > 1000 | COc1ncccc1-c1nc(C2CC(C)(C)OC(C)(C)C2)cn1-c1ccc(Cl)c(C#N)c1 [Compound 84, 2-chloro-5-(2-(2-methoxypyridin-3-yl)-4-(2,2,6,6-tetramethyltetrahydro-2H-pyran-4-yl)-1H-imidazol-1-yl)benzonitrile] | –
– | 6480 | > 1000 | COc1ccc(-n2cc(C3CC(C)(C)OC(C)(C)C3)nc2-c2cccnc2OC)cc1C#N [Compound 85, 2-methoxy-5-(2-(2-methoxypyridin-3-yl)-4-(2,2,6,6-tetramethyltetrahydro-2H-pyran-4-yl)-1H-imidazol-1-yl)benzonitrile] | –
– | 1300 | > 1000 | COc1ncncc1-c1nc(C2CC(C)(C)OC(C)(C)C2)cn1-c1ccc(C#N)cc1 [Compound 86, 4-(2-(4-methoxypyrimidin-5-yl)-4-(2,2,6,6-tetramethyltetrahydro-2H-pyran-4-yl)-1H-imidazol-1-yl)benzonitrile] | –
– | 6200 | – | COc1nccnc1-c1nc(C2CC(C)(C)OC(C)(C)C2)cn1-c1ccc(C#N)cc1 [Compound 87, 4-(2-(3-methoxypyrazin-2-yl)-4-(2,2,6,6-tetramethyltetrahydro-2H-pyran-4-yl)-1H-imidazol-1-yl)benzonitrile] | N Type IC50 Data Qpatch Pulse=1 [1, 8]: poor fit(0.01-0.3 µM); N Type IC50 Data Qpatch Pulse=15 [1, 9]: poor fit(0.01-0.3 µM)
– | 2170 | – | COc1nccnc1-c1nc(C2CC(C)(C)OC(C)(C)C2)cn1-c1ccc(C#N)c(F)c1 [Compound 88, 2-fluoro-4-(2-(3-methoxypyrazin-2-yl)-4-(2,2,6,6-tetramethyltetrahydro-2H-pyran-4-yl)-1H-imidazol-1-yl)benzonitrile] | IC50 [1, 11]: 349 nM; N Type IC50 Data Qpatch Pulse=15 [1, 9]: poor fit(0.01-0.3 µM)
– | 205 | – | CCOc1ncccc1-c1nc(C2CC(C)(C)OC(C)(C)C2)cn1-c1ccc(C#N)c(F)c1 [Compound 89, 4-(2-(2-ethoxypyridin-3-yl)-4-(2,2,6,6-tetramethyltetrahydro-2H-pyran-4-yl)-1H-imidazol-1-yl)-2-fluorobenzonitrile] | IC50 [1, 11]: 517 nM; N Type IC50 Data Qpatch Pulse=15 [1, 9]: poor fit(0.01-0.3 µM)
– | 120 | – | COc1ccccc1-c1nc(C2CC(C)(C)OC(C)(C)C2)c(C)n1-c1ccc(Cl)cc1 [Compound 90, 1-(4-chlorophenyl)-2-(2-methoxyphenyl)-5-methyl-4-(2,2,6,6-tetramethyltetrahydro-2H-pyran-4-yl)-1H-imidazole] | N Type IC50 Data Qpatch Pulse=1 [1, 8]: poor fit(0.01-0.3 µM); N Type IC50 Data Qpatch Pulse=15 [1, 9]: poor fit(0.01-0.3 µM)
– | 1430 | – | COc1ncccc1-c1nc(C2CC(C)(C)OC(C)(C)C2)c(Cl)n1-c1ccc(C#N)cc1 [Compound 91, 4-(5-chloro-2-(2-methoxypyridin-3-yl)-4-(2,2,6,6-tetramethyltetrahydro-2H-pyran-4-yl)-1H-imidazol-1-yl)benzonitrile] | inhibition at 10 µM [1, 4]: 58%; inhibition at 10 µM [1, 6]: 62%
– | 41 | – | COc1ncccc1-c1nc(C2CC(C)(C)OC(C)(C)C2)c(Cl)n1-c1ccc(F)cc1 [Compound 92, 3-(5-chloro-1-(4-fluorophenyl)-4-(2,2,6,6-tetramethyltetrahydro-2H-pyran-4-yl)-1H-imidazol-2-yl)-2-methoxypyridine] | IC50 [1, 12]: 253 nM; IC50 ([1]; N Type IC50 Data Qpatch Pulse=15, Pulse=15, concentration range 0.01-1 µM): 269 nM
– | 551 | > 1000 | COc1ccccc1-c1nc(C2CC(C)(C)OC(C)(C)C2)cn1S(=O)(=O)C(F)(F)F [Compound 94, 2-(2-methoxyphenyl)-4-(2,2,6,6-tetramethyltetrahydro-2H-pyran-4-yl)1((trifluoromethyl)sulfonyl)-1H-imidazole] | IC50 [1, 13]: > 1000 nM
– | 10000 | > 1000 | COc1ccccc1-c1nc(C2CC(C)(C)OC(C)(C)C2)cn1S(=O)(=O)C1CC1 [Compound 95, 1-(cyclopropylsulfonyl)-2-(2-methoxyphenyl)-4-(2,2,6,6-tetramethyltetrahydro-2H-pyran-4-yl)-1H-imidazole] | IC50 [1, 13]: > 1000 nM
3080 | 515 | – | COc1ccccc1-c1nc(C2CC(C)(C)OC(C)(C)C2)cn1S(=O)(=O)c1ccc(Cl)cc1 [Compound 97, 1-((4-chlorophenyl)sulfonyl)-2-(2-methoxyphenyl)-4-(2,2,6,6-tetramethyltetrahydro-2H-pyran-4-yl)-1H-imidazole] | –
3600 | 692 | – | COc1ccccc1-c1nc(C2CC(C)(C)OC(C)(C)C2)cn1S(=O)(=O)c1ccc(F)cc1 [Compound 98, 1-((4-fluorophenyl)sulfonyl)-2-(2-methoxyphenyl)-4-(2,2,6,6-tetramethyltetrahydro-2H-pyran-4-yl)-1H-imidazol,] | IC50 [1, 7]: 9020 nM
– | 10900 | > 1000 | COc1ccccc1-c1nc(C2CC(C)(C)OC(C)(C)C2)cn1Cc1ccc(C#N)cc1 [Compound 99, 4-((2-(2-methoxyphenyl)-4-(2,2,6,6-tetramethyltetrahydro-2H-pyran-4-yl)-1H-imidazol-1-yl)methyl)benzonitrile] | IC50 [1, 13]: > 1000 nM
– | 3580 | > 1000 | COc1ccccc1-c1nc(C2CC(C)(C)OC(C)(C)C2)cn1Cc1cccc(C#N)c1 [Compound 101, 3-((2-(2-methoxyphenyl)-4-(2,2,6,6-tetramethyltetrahydro-2H-pyran-4-yl)-1H-imidazol-1-yl)methyl) benzonitrile] | IC50 [1, 12]: > 1000 nM
1740 | 37 | – | COc1ccccc1-c1nc(C2(O)CC(C)(C)OC(C)(C)C2)cn1-c1ccc(Cl)cc1 [Compound 102, 4-(1-(4-chlorophenyl)-2-(2-methoxyphenyl)-1H-imidazol-4-yl)-2,2,6,6-tetramethyltetrahydro-2H-pyran-4-ol] | inhibition at 10 µM [1, 4]: 48%
– | 367 | – | COc1ccncc1-c1nc(C2(O)CC(C)(C)OC(C)(C)C2)cn1-c1ccc(Cl)cc1 [Compound 103, 4-(1-(4-chlorophenyl)-2-(4-methoxypyridin-3-yl)-1H-imidazol-4-yl)-2,2,6,6-tetramethyltetrahydro-2H-pyran-4-ol] | IC50 [1, 7]: 4300 nM; inhibition at 10 µM [1, 6]: 31%
3820 | 300 | > 1000 | COc1ncccc1-c1nc(C2(O)CC(C)(C)OC(C)(C)C2)cn1-c1ccc(Cl)cc1 [Compound 105, 4-(1-(4-chlorophenyl)-2-(2-methoxypyridin-3-yl)-1H-imidazol-4-yl)-2,2,6,6-tetramethyltetrahydro-2H-pyran-4-ol] | IC50 [1, 12]: 964 nM; IC50 [1, 7]: 8300 nM

SMILES | IC50 [1, 3] [nM] | IC50 [2, 5] [nM] | IC50 [1, 10] [nM] | further results
COc1ncccc1-c1nc(C2CC(C)(C)OC(C)(C)C2)c(Cl)n1-c1ccc(Cl)cc1 [Compound 93, 3-(5-chloro-1-(4-chlorophenyl)-4-(2,2,6,6-tetramethyltetrahydro-2H-pyran-4-yl)-1H-imidazol-2-yl)-2-methoxypyridine] | 1800 | – | – | IC50 [1, 7]: 6500 nM; IC50 [2]: 150 nM
COc1ccccc1-c1nc(C2CC(C)(C)OC(C)(C)C2)cn1S(=O)(=O)CC(C)C [Compound 96, 1-(isobutylsulfonyl)-2-(2-methoxyphenyl)-4-(2,2,6,6-tetramethyltetrahydro-2H-pyran-4-yl)-1H-imidazole] | 5400 | – | – | IC50 [2]: 768 nM

— patent publication EP3033337B1, “SUBSTITUTED IMIDAZOLES AS N-TYPE CALCIUM CHANNEL BLOCKERS” (Janssen Pharmaceutica NV, priority 2013, dated 2015)
